For series [1] the following is noted: rats; cited from earlier work.
Series [2] concerns normal physiological nociception. Description: normal physiological nociception. In kind it is in vivo. Conditions: after administration of spongosine.
The subject of series [3] is thermal hyperalgesia caused by chronic constriction injury. Description: thermal hyperalgesia caused by chronic constriction injury of the rat sciatic nerve. In kind it is in vivo. An excerpt: After approximately two weeks the rats developed thermal hyperalgesia in the operated leg as judged by the difference in paw withdrawal latencies of the right and left paws.
The test system of series [4] is carrageenan (CGN) induced thermal hyperalgesia. Description: carrageenan induced thermal hyperalgesia (CITH). In kind it is in vivo. As to the method:
Carrageenan (2%, 10 microliters) was administered into the right hind paw. A heat source was placed close to the treated and untreated hind paws, and the difference in the paw withdrawal latencies is shown. Spongosine was administered at the same time as carrageenan.

The subject of another series is static allodynia. Description: static allodynia in a model of neuropathic pain. In kind it is in vivo. As to the method: Spongosine and gabapentin were administered (p.o.) in different proportions as indicated in the drawing. The total dose administered is shown on the horizontal axis, and the paw withdrawal threshold (PWT) on the vertical axis. The predicted anti-hyperalgesic effect (derived from the dose response curves obtained with each agent alone) if the effects of the two compounds are additive is shown (●). The observed effects are indicated by (▪).

The nature of series [5]: blood pressure and heart rate by implantable radiotelemetry. In kind it is in vivo, rat. The settings on record: 0.624 mg/kg p.o., normal rats. An excerpt:
An implantable radiotelemetry device was placed in the abdominal cavity of 6 rats per group. The pressure catheter of the device was inserted in the abdominal aorta and two electrodes tunnelised under the skin in a lead II position (left side of abdominal cavity/right shoulder). Individual rats were placed in their own cage on a radioreceptor (DSI) for data acquisition. A: blood pressure, B; heart rate.

Series [6] relates to carrageenan-induced oedema. Conditions: rats; inhibition of carrageenan-induced oedema in a rat paw; cited from earlier work.

The source of these data is patent US8252766B2 (CBT Development Limited, priority 2002, dated 2012).

With `COc1nc(N)c2ncn([C@@H]3O[C@H](CO)[C@@H](O)[C@H]3O)c2n1` [Spongosine, 2-methoxyadenosine], in series [1], the hypotensive activity result is given as “hypotensive”, the hypothermic activity entry is listed as “hypothermic” and the muscle relaxant activity entry is “muscle relaxant”. The “analgesic effect on normal physiological nociception” value in series [2] is on record as “No analgesic effect”. Also, the “inhibition of thermal hyperalgesia (difference in paw withdrawal latencies)” value in series [3] (0.624 mg/kg p.o., rat, about two weeks after sciatic nerve ligation) is given as “inhibits”. In addition, the “efficacy relative to carbamazepine” value in series [3] (spongosine 0.624 mg/kg p.o. versus carbamazepine 100 mg/kg s.c.) is reported as “as, or more, effective”. Further, in series [4] (0.624 mg/kg p.o., given at the same time as carrageenan (2%, 10 microliters, right hind paw)), the “inhibition of carrageenan induced thermal hyperalgesia (difference in paw withdrawal latencies)” value is on record as “inhibits”. Further, the “efficacy relative to indomethacin” value in series [4] (spongosine 0.624 mg/kg p.o. versus indomethacin 3 mg/kg po) is on record as “comparable efficacy”. The “inhibition of static allodynia (paw withdrawal threshold, PWT)” value (from here on “inhibition of static allodynia”) in the series with static allodynia (1.2 mg/kg p.o., absence of naloxone) is given as “inhibits”. In addition, the “inhibition of static allodynia” value in the series on static allodynia (1.2 mg/kg p.o., presence of naloxone 1 mg/kg s.c.) is listed as “inhibits”. Further, the “inhibition of static allodynia” value in the series on static allodynia (p.o., dose response, Example 5) is listed as “inhibit”. For the same compound, in series [5], the “effect on blood pressure” value is reported as “no significant effect” and the “effect on heart rate” value is listed as “no significant effect”. In addition, the anti-inflammatory activity entry in series [6] is “anti-inflammatory activity”.

Take `NCC1(CC(=O)O)CCCCC1` [gabapentin, reference compound]: in the series with static allodynia (p.o., dose response, Example 5), the “inhibition of static allodynia” value is “inhibit”.
